Measured values from patent US4159263A, “(D-Ala^5)-somatostatin and analogues thereof” (American Home Products Corporation, priority 1977, dated 1979).
Positions of bridges follow the written chain, without caps; N, C: chain ends. Non-standard residues stand in square brackets, D forms with d. Residues, ends and D or L forms follow the SMILES beside them.

Columns and labels:
glucagon = assay: Arginine-stimulated glucagon secretion in Nembutal-anesthetized rats, radioimmunoassay of blood; details: for Glucagon: albino male rats, subcutaneous
Protocol: Albino male rats were administered Nembutal intraperitoneally at a dose of 50 milligrams per kilogram. Fifteen minutes later a subcutaneous injection of the test compound or physiological saline was administered. Ten minutes later 0.5 milliliters of arginine (300 milligrams per milliliter, pH 7.2) is injected into the heart. Five minutes after receipt of the arginine the rats are decapitated and blood is collected into trasylol-EDTA. An appropriate aliquot was assayed for growth hormone, insulin and glucagon by radioimmunoassay.

insulin = assay: Arginine-stimulated insulin secretion in Nembutal-anesthetized rats, radioimmunoassay of blood; format: in vivo; details: for Insulin: albino male rats, subcutaneous
Text: (§1) The results of the assay are as follows:

growth hormone = assay: Arginine-stimulated growth hormone secretion in Nembutal-anesthetized rats, radioimmunoassay of blood; format: in vivo; details: for GH: albino male rats, subcutaneous
Text: as §1

SMILES: C[C@H](N)C(=O)NCC(=O)N[C@H]1CSSC[C@@H](C(=O)O)NC(=O)[C@H](CO)NC(=O)[C@H]([C@@H](C)O)NC(=O)[C@H](Cc2ccccc2)NC(=O)[C@H]([C@@H](C)O)NC(=O)[C@H](CCCCN)NC(=O)[C@@H](Cc2c[nH]c3ccccc23)NC(=O)[C@H](Cc2ccccc2)NC(=O)[C@H](Cc2ccccc2)NC(=O)[C@@H](C)NC(=O)[C@H](CCCCN)NC1=O [L-Alanylglycyl-L-cysteinyl-L-lysyl-D-alanyl-L-phenylalanyl-L-phenylalanyl-D-tryptophyl-L-lysyl-L-threonyl-L-phenylalanyl-L-threonyl-L-seryl-L-cysteinecyclic (3→14)-disulfide, triacetate] (H-AGCK[dA]FF[dW]KTFTSC-OH; disulfide 3-14)
- Glucagon (glucagon; dose 10 ug/kg, control 92 ± 23, *not significant): 78 ± 7 pg/mL
- Glucagon (glucagon; dose 1,000 ug/kg, control 42 ± 3): 40 ± 6 pg/mL
- effect on glucagon levels (summary in words) (glucagon; summary of rat results): without materially affecting glucagon levels
- Insulin (insulin; dose 10 ug/kg, control 321 ± 49): 215 ± 13 μU/ml
- Insulin (insulin; dose 100 ug/kg, control 339 ± 45): 68 ± 11 μU/ml
- Insulin (insulin; dose 1,000 ug/kg, control 191 ± 11): 42 ± 5 μU/ml
- reducing secretion of insulin (summary in words) (insulin; summary of rat results): effective agent for reducing secretion of growth hormone and insulin
- GH (growth hormone; dose 10 ug/kg, control 254 ± 40): 53 ± 6 ng/mL
- GH (growth hormone; dose 100 ug/kg, control 526 ± 153): 117 ± 31 ng/mL
- GH (growth hormone; dose 1,000 ug/kg, control 312 ± 63): 34 ± 5 ng/mL
- reducing secretion of growth hormone (summary in words) (growth hormone; summary of rat results): effective agent for reducing secretion of growth hormone
